Experimental data taken from patent publication US9782452B2, “Methods for stimulating hematopoietic recovery by inhibiting TGFβ signaling” (Cornell University, priority 2011, dated 2017).
“Also recorded” adds a separate entry of the source.

Legend:
Assay type in all cases: in vivo, mouse
[1] = system: LKS+ HSPCs and LKS+SLAM cells; assay: Bi-dimensional cell cycle analysis of BM HSPCs after 5FU; conditions: D15 after 5FU, 1 mg/kg IP 6 times over 9 days; vs 5FU only
Procedure: (§1) Mice were killed by CO2 asphyxiation and femur, tibia and humeri were dissected free of muscle and tendons and then crushed in DMEM using a mortar and pestle. The resulting cell suspension was filtered through a 70-μm filter and washed in PEB (2 mM EDTA, 0.2% BSA in PBS pH 7.4). Spleens were isolated and then minced prior to grinding through a 70-μm filter to generate single cell suspensions. Lineage negative (Lin^−) cells were purified using a biotinylated lineage cell detection cocktail (Miltenyi Biotec). Lineage depleted cells were then stained with streptavidin-Qdot 605 (eBioscience), Horizon V450-conjugated anti-CD117 (BD Biosciences), PECy7-conjugated Sca-1 (BioLegend), Alexa700-conjugated CD34 (BD Biosciences), APC-conjugated CD135 (Flk2) (BioLegend), and PerCP/Cy5.5-conjugated CD16/32 (FcR). Hematopoietic populations were identified as following: LT-HSCs, LKS^+ CD34^−Flk2^−; ST-HSCs, LKS^+ CD34^+ Flk2^−; MPPs, LKS^+ CD34^+ Flk2^+; CMPs, LKS^− CD34^+ FcRlow; GMPs, LKS^− CD34^+ FcR^+; and MEPs, LKS^− CD34^− FcR^− MEPs. DAPI was used to exclude dead cells during flow cytometric analysis. […] The cell cycle status of LKS^+SLAM cells was analyzed using this same strategy. Analysis gates were set based upon the fluorescence minus one (FMO) fluorophore. […]

LKS+ HSPCs = assay: Multidimensional flow cytometry of BM HSPC regeneration after 5FU; conditions: 1 mg/kg IP 6 times over 9 days, vs control
Procedure: as §1

C57BL/6J mice = assay: Blood count recovery after myelosuppressive 5FU chemotherapy
Procedure: The inventors used 5FU (250 mg/kg, 1 i.p.) for C57BL/6J mice, or 5FU 150 mg/kg (1 i.p.) for mice that had been previously transplanted. To assess blood count recovery, the inventors collected peripheral blood (50 μl) into EDTA-coated capillary tubes (Fisher Scientific). Differential blood counts were measured using an automated Bayer ADVIA 120 Multispecies Hematology Analyzer calibrated for murine blood (Bayer HealthCare).
The inventors treated cohorts of mice with 5FU (250 mg/kg) on day 0 and then with either the TGFβ-neutralizing antibody 1D11 (I) (10 mg/kg) or a non-targeted control antibody 13C4 (C) (10 mg/kg) on days 5, 7 and 9. The 1D11 and 13C4 antibodies were generously provided by Genzyme Corp., Framingham, Mass., USA. Mice were treated with 5FU (250 mg/kg) on day 0 and then received either LY364947 (1 mg/kg, i.p.) or an equal volume of PBS six times over a period of 9 days. Hematopoietic reconstitution was followed by monitoring peripheral blood counts and multidimensional flow cytometry on bone marrow and spleen cells, as indicated.

[2] = 5FU 250 mg/kg D0, 1 mg/kg IP 6 times over 9 days, vs PBS

`c1ccc(-c2[nH]ncc2-c2ccnc3ccccc23)nc1` [LY364947] was tested, and the “cycling of LKS+ and LKS+SLAM cells” value [1] was “prolonged cycling; also recorded: persisted in cycle”, the “expansion of LKS+SLAM cells” value (LKS+ HSPCs) was “greater expansion” and the PLT recovery (C57BL/6J mice; [2]) was “faster”. The WBC recovery (C57BL/6J mice; [2]) was “faster” and the blood counts recovery (C57BL/6J mice; after 5FU, vs vehicle control) was “recovered blood counts more rapidly”.
